Measured values as given in patent US7223365B2, “Device and method for detecting the coagulation functions of global, especially primary hemostasis” (priority 2000, dated 2007).

System: platelet function
Assay: examination of the coagulation function of the global, in particular the primary, hemostasis; volumetric flow regulated by pressure change in the reaction opening at constant shear rate
Format: cell-based
Conditions: FIG. 29; volumetric flow regulated at specified constant shear rate
From the text: The sealing time and the sealing volume are measurement values for clinical analysis.

## CC(=O)Oc1ccccc1C(=O)O [ASA, acetylsalicylic acid]
  deposition of platelets in the reaction opening: hardly any deposition of platelets
  measurement limits (sealing time / sealing volume): not reached
